System: differentiated P19 neurons
Assay: Drug screening using differentiated P19 cell assay (neuroprotection against glutamate/glycine)
Assay type: cell-based, murine
Conditions: for IC50: dose response 0.005-3 μM, 3 mM glutamate + 1 mM glycine, >1 = no maximum within highest dose (3 μM); for % neuroprotection (cell survival relative to control): screened at 1 micromolar, percentage of control cells surviving after 24 hours
Procedure: Commercially available chemical libraries (BioFocus PLC, UK) were screened using the methods described herein. The stock concentration of the compounds was about 400 μM in DMSO. The concentration of compounds used in the primary screen was 1 μM. […] Columns 4-11 received compounds at the following final concentrations (μM): 3, 1.2, 0.48, 0.192, 0.077, 0.031, 0.012 and 0.005. Each row contained a different compound for confirmation. Only rows B-G received compounds, and rows A and H remained untreated. Data are expressed as % neuroprotection=((compound-glutamate average)/(U0126-glutamate average)×100).
Only the 2-pyridinamines are the subject of this invention, although limited data for 4-pyrimidinamines are presented as well. “% Inh” indicates the percentage of control cells surviving after 24 hours, and represents the neuroprotective effect of the compounds screened at 1 micromolar concentration. IC50 relate to data from dose response experiments. […] ND refers to compounds not tested in dose-response experiments. […]

SMILES | IC50 [µM] | IC50 (Mus musculus, Neuron) [µM] | % neuroprotection (cell survival relative to control) [%]
COc1ccc(Nc2ccc(-c3ccc(OC(F)(F)F)cc3)cn2)cc1 [Cmpd 3] | 0.51 | – | 94
CCCCCOc1ccc(Nc2ccc(-c3ccc(N(C)C)cc3)cn2)cc1 [Cmpd 7, 2-pyridinamine, 5-[4-(dimethylamino)phenyl]-N-[4-(pentyloxy)phenyl]-] | – | 0.24 | 88
CCCCCOc1ccc(Nc2ccc(-c3ccc(CCC(=O)O)cc3)cn2)cc1 [Cmpd 10, benzenepropanoic acid, 4-[6-[[4-(pentyloxy)phenyl]amino]-3-pyridinyl]-] | – | 0.23 | 105
CCOc1cccc(-c2ccc(Nc3cc(OC)c(OC)c(OC)c3)nc2)c1 [Cmpd 12, 2-pyridinamine, 5-(3-ethoxyphenyl)-N-(3,4,5-trimethoxyphenyl)-] | – | 0.047 | 87
FC(F)(F)Oc1ccc(-c2ccc(Nc3ccc(N4CCOCC4)cc3)nc2)cc1 [Cmpd 17] | – | – | 74
COc1ccc(Nc2ccc(-c3cccc(OC(F)(F)F)c3)cn2)cc1 [Cmpd 18] | – | – | 74
CCCCCOc1ccc(Nc2ccc(-c3cccnc3)cn2)cc1 [Cmpd 37] | – | – | 84
CN(C)c1cccc(Nc2ccc(-c3ccc(N4CCN(C(=O)OC(C)(C)C)CC4)cc3)cn2)c1 [Cmpd 38] | – | – | 89
COc1cc(Nc2ccc(-c3ccc(N4CCN(C(=O)OC(C)(C)C)CC4)cc3)cn2)cc(OC)c1OC [Cmpd 40] | – | – | 77
CC(C)(C)OC(=O)N1CCN(c2ccc(-c3ccc(Nc4ccc5c(c4)OCCO5)nc3)cc2)CC1 [Cmpd 69] | – | – | 99
Oc1ccc(-c2ccc(Nc3ccc4c(c3)OCCO4)nc2)cc1 [Cmpd 70] | – | – | 93
COc1ccccc1-c1ccc(Nc2cc(OC)c(OC)c(OC)c2)nc1 [Cmpd 71] | – | – | 77
CCOc1cccc(-c2ccc(Nc3ccc4c(c3)OCCO4)nc2)c1 [Cmpd 73] | – | – | 76
COc1cc(Nc2ccc(-c3cccc(N(C)C)c3)cn2)cc(OC)c1OC [Cmpd 74] | – | – | 95
CCCCCOc1ccc(Nc2ccc(-c3cccc(N(C)C)c3)cn2)cc1 [Cmpd 75] | – | – | 88
CN(C)c1cccc(-c2ccc(Nc3ccc4c(c3)OCCO4)nc2)c1 [Cmpd 76] | – | – | 95
CCn1c2ccccc2c2cc(Nc3ccc(-c4ccc(N5CCOCC5)cc4)cn3)ccc21 [Cmpd 77] | – | – | 82
COc1ccc(Nc2ccc(-c3ccccc3)cn2)cc1 [Cmpd 82] | – | – | 72
COc1ccc(Nc2ccc(-c3ccc(N4CCOCC4)cc3)cn2)cc1 [Cmpd 83] | – | – | 71
COc1cc(Nc2ccc(-c3ccc(C)c(C)c3)cn2)cc(OC)c1OC [Cmpd 84] | 0.49 | – | 85
Cc1ccc(-c2ccc(Nc3cccc(N(C)C)c3)nc2)cc1C [Cmpd 87] | > 1 | – | 84
C(=C\c1ccc(Nc2ccc3c(c2)OCCO3)nc1)/c1ccccc1 [Cmpd 88, 2-pyridinamine, N-(2,3-dihydro-1,4-benzodioxin-6-yl)-5-[(E)-2-phenylethenyl]-] | – | 0.23 | 85
COc1ccc(Nc2ccc(C=Cc3ccccc3)cn2)c(C)c1 [Cmpd 90] | – | – | 73
COc1ccc(Nc2cccc(-c3ccc4ccccc4c3)n2)cc1 [Cmpd 97] | – | – | 71
COc1ccc(Nc2cccc(-c3ccc(N(C)C)cc3)n2)cc1 [Cmpd 98] | – | – | 71
CCn1c2ccccc2c2cc(Nc3cccc(-c4cccc(N)c4)n3)ccc21 [Cmpd 99] | 0.33 | – | 105
COc1ccc(Nc2cccc(-c3cccc(N)c3)n2)cc1 [Cmpd 100] | – | – | 79

Now from value to molecule, other results behind:

IC50 [µM] | IC50 (Mus musculus, Neuron) [µM] | SMILES | % neuroprotection (cell survival relative to control) [%]
1.08 | – | Oc1ccc(-c2ccc(Nc3ccc(N4CCOCC4)cc3)nc2)cc1 [Cmpd 1] | 84
0.56 | – | COc1ccc(Nc2ccc(-c3ccc(O)cc3)cn2)cc1 [Cmpd 2] | 94
0.38 | – | FC(F)(F)Oc1ccc(-c2ccc(Nc3ccc4c(c3)OCCO4)nc2)cc1 [Cmpd 4] | 86
0.284 | – | c1cc2c(cc1Nc1ccc(-c3ccc(N4CCOCC4)cc3)cn1)OCCO2 [Cmpd 5] | 80
– | 0.22 | CCCCCOc1ccc(Nc2ccc(-c3ccc(N4CCOCC4)cc3)cn2)cc1 [Cmpd 6, 2-pyridinamine, 5-[4-(4-morpholinyl)phenyl]-N-[4-(pentyloxy)phenyl]-] | 83
– | 0.2 | COc1ccc(Nc2ccc(-c3ccc(N(C)C)cc3)cn2)cc1 [Cmpd 8, 2-pyridinamine, 5-[4-(dimethylamino)phenyl]-N-(4-methoxyphenyl)-] | 83
0.56 | – | CCCCCOc1ccc(Nc2ccc(-c3ccc(O)cc3)cn2)cc1 [Cmpd 9] | 84
0.87 | – | COc1ccccc1-c1ccc(Nc2ccc3c(c2)OCCO3)nc1 [Cmpd 11] | 83
– | 0.26 | CCCCCOc1ccc(Nc2ccc(-c3ccc4c(c3)OCO4)cn2)cc1 [Cmpd 13, 2-pyridinamine, 5-(1,3-benzodioxol-5-yl)-N-[4-(pentyloxy)phenyl]-] | 98
– | 0.22 | CCCCCOc1ccc(Nc2ccc(-c3ccccc3OC)cn2)cc1 [Cmpd 14, 2-pyridinamine, 5-(2-methoxyphenyl)-N-[4-(pentyloxy)phenyl]-] | 90
– | 0.21 | FC(F)(F)c1cc(-c2ccc(Nc3ccc(N4CCOCC4)cc3)nc2)cc(C(F)(F)F)c1 [Cmpd 21, 2-pyridinamine, 5-[3,5-bis(trifluoromethyl)phenyl]-N-[4-(4-morpholinyl)phenyl]-] | 95
– | 0.09 | c1ccc2sc(-c3ccc(Nc4ccc(N5CCOCC5)cc4)nc3)cc2c1 [Cmpd 22, 2-pyridinamine, 5-benzo[b]thien-2-yl-N-[4-(4-morpholinyl)phenyl]-] | 98
0.92 | – | c1ccc2oc(-c3ccc(Nc4ccc(N5CCOCC5)cc4)nc3)cc2c1 [Cmpd 23] | 96
1.76 | – | COc1cc(-c2ccc(Nc3ccc(N4CCOCC4)cc3)nc2)cc(OC)c1OC [Cmpd 24] | 94
– | 0.084 | c1ccc2cc(-c3ccc(Nc4ccc(N5CCOCC5)cc4)nc3)ccc2c1 [Cmpd 25, 2-pyridinamine, N-[4-(4-morpholinyl)phenyl]-5-(2-naphthyl)-] | 100
> 1 | – | Clc1cccc(-c2ccc(Nc3ccc(N4CCOCC4)cc3)nc2)c1Cl [Cmpd 26] | 107
> 1 | – | c1ccc(Oc2ccccc2-c2ccc(Nc3ccc(N4CCOCC4)cc3)nc2)cc1 [Cmpd 28] | 83
> 1 | – | Clc1ccc(-c2ccc(Nc3ccc(N4CCOCC4)cc3)nc2)cc1 [Cmpd 29] | 82
> 1 | – | c1cc(N2CCOCC2)ccc1Nc1ccc(-c2ccc3c(c2)OCO3)cn1 [Cmpd 30] | 84
> 1 | – | Fc1ccc(-c2ccc(Nc3ccc(N4CCOCC4)cc3)nc2)cc1Cl [Cmpd 31] | 83
> 1 | – | COc1ccccc1-c1ccc(Nc2ccc(N3CCOCC3)cc2)nc1 [Cmpd 32] | 100
> 1 | – | FC(F)(F)Oc1cccc(-c2ccc(Nc3ccc(N4CCOCC4)cc3)nc2)c1 [Cmpd 33] | 89
> 1 | – | COc1ccc(Nc2ccc(-c3ccccc3OC)cn2)cc1 [Cmpd 35] | 82
> 1 | – | CCCCCOc1ccc(Nc2ccc(-c3cccc(N)c3)cn2)cc1 [Cmpd 36] | 98
0.47 | – | c1ccc(-c2ccc(-c3ccc(Nc4ccc(N5CCOCC5)cc4)nc3)cc2)cc1 [Cmpd 78] | 109
0.46 | – | COc1ccc(-c2ccc(Nc3ccc(N4CCOCC4)cc3)nc2)cc1OC [Cmpd 79] | 110
0.75 | – | Cc1ccc(-c2ccc(Nc3ccc(N4CCOCC4)cc3)nc2)cc1C [Cmpd 80] | 94
0.47 | – | c1ccc2cc(-c3ccc(Nc4ccc5c(c4)OCCO5)nc3)ccc2c1 [Cmpd 81] | 107
> 1 | – | Cc1ccc(-c2ccc(Nc3ccc4c(c3)OCCO4)nc2)cc1C [Cmpd 85] | 86
> 1 | – | COc1ccc(Nc2ccc(-c3ccc(C)c(C)c3)cn2)cc1 [Cmpd 86] | 80
